Assay results published in PMC5789847, “Bismuth antimicrobial drugs serve as broad-spectrum metallo-β-lactamase inhibitors” (Nature Communications, 2018).
Values joined by “and” are separate entries in the source; they are usually repeats but may differ in a detail not shown here. Identical values can stand only once.

How the values were obtained:
[1] = molecular target: NDM-1 (Klebsiella pneumoniae, UniProt C7C422); type: biochemical; settings: MER substrate
Description: (§1) Freshly prepared 50 nM of Zn2-NDM-1, Zn2-VIM-2, or Zn2-IMP-4 in 50 mM HEPES/Na pH 7.0, 100 mM NaCl were first incubated with various concentrations of CBS for 1 h at 25 °C, then mixed with equal volume of 0.2 mM MER. The assay was performed in a 1 cm quartz cuvette using the kinetic mode on a Varian Cary50 UV-visible spectrophotometer at 25 °C. The decrease in absorbance at 300 nm due to ring-opening of MER was monitored every second for a duration of 10 min until the reaction was completed. The initial rates were extracted and calculated from each reaction curves for fitting IC50 curves.

[2] = molecular target: VIM-2 (Escherichia coli, UniProt Q5U7L7); type: biochemical; settings: MER substrate
Description: as §1

[3] = molecular target: NDM-1-C208A (Klebsiella pneumoniae, UniProt C7C422, C208A); assay: Residual enzyme activity of NDM-1 variant with CBS at IC50; type: biochemical; settings: CBS at IC50 concentration, compared with WT NDM-1
[4] = test system: NDM-HK; assay: Murine peritonitis infection, mucin-assisted model; type: in vivo, BALB/c mice; settings: 2% mucin
Text: All experiments were approved by, and performed in accordance with the guidelines approved by Committee on the Use of Live Animals in Teaching and Research (CULATR), the University of Hong Kong. A total of 6–8-week-old, female BALB/c mice (18–22 g) were purchased from Charles River Laboratories, Inc. and were used in all mouse studies. The animals were randomized to cages for each experiment.
In mucin-assisted model, for infection with NDM-1-positive bacteria, an overnight culture of NDM-HK was performed 1:250 dilution in 100 mL LB broth and re-grew to about OD600 0.3 in a 500-mL flask after 2.5 h shaking at 37 °C, 250 rpm. Bacterial pellets were collected and washed by PBS buffer three times for further use. Mice were infected intraperitoneally (i.p.) with a dose of 1 × 10^5 CFU of bacteria in PBS supplemented with 2% mucin. […] Twice-daily treatment via i.p. injection was continued throughout the whole experimental course. For the infection with NDM-1-negative bacteria, all the operations of infection were similar to those used for NDM-HK, except that NDM-HK PCV was used as infection-causing bacteria. […] Twice-daily treatment via i.p. injection was continued throughout the whole experimental course. Body weights and mice survival were monitored till endpoint of the experiment.

[5] = test system: NDM-HK; assay: Time kill assay; type: cell-based, E. coli; settings: MER 24 μg mL^-1 + CBS 64 μg mL^-1, 24 h, exponential phase
Description: Time kill assay was used to further explore the synergy between MER and Bi(III) compounds. In a typical assay, NDM-HK was cultured overnight and diluted 1:250 into LB broth at 37 °C for 3 h to reach log phase. The initial bacterial density was adjusted to ~10^7 CFU mL^−1 and then exposed to MER, Bi(III) compounds either alone or in combination. LB broth with no drugs served as a control. Aliquots of bacterial suspension were withdrawn at different time intervals (0, 1, 2, 4, 6, 8, and 24 h) for inspection of bacterial viability by agar plating. The concentrations of the drugs used in the test are 24 µg mL^−1 for MER, 64 µg mL^−1 for CBS, and 32 µg mL^−1 for Bi(NAC)3. Data from three independent experiments were averaged and plotted as log10 CFU mL^−1 vs. time (h) for each time point over 24 h. All assays were triplicated and performed three times on different days.

[6] = test system: NDM-HK; assay: In vitro cell infection assay (MDCK cells); type: cell-based, E. coli
Description: MDCK cell was cultured in minimum essential Media (MEM) supplemented with fetal bovine serum (FBS, 10%) and grown at 37 °C in 5% CO2-humidified atmosphere for 3 days. About 1.0 × 10^5 MDCK cells were seeded per well in 24-well plates and incubated as described above for 48 h to ensure confluency. Logarithmic cultures of NDM-HK were washed with PBS for three times and re-suspended in MEM/10% FBS resulting in the initial bacterial density of about 2.0 × 10^7 CFU mL^−1. Then, 500 μL of bacterial suspension were added to each well and substituted for the previous MDCK culture medium. The plates were centrifuged at 800 × g for 10 min and then incubated for another 6 h, executing the bacterial infection at multiplicity of infection (MOI) of 200. We then used two infection models for examination, viz, the cell-associated bacterial infection and cell-invaded bacterial infection. The cell-associated bacteria are herein defined as bacteria that attach to, penetrate, or transcytose in MDCK cells, while the cell-invaded bacteria are defined as bacteria that penetrate or transcytose MDCK cells. For the cell-invaded infection, the infected cells were incubated in culture medium supplemented with ciprofloxacin (100 µg mL^−1) for 1 h to remove extracellular bacteria. Then, the treated cells were washed vigorously with PBS for six times and replenished with culture medium. For the cell-associated infection, the infected cells were only washed vigorously with PBS for six times to remove unbound bacteria. The infected MDCK cells were then exposed to either MER or CBS, or their combination for overnight under identical cell culture condition. Cells in the absence of drugs served as a control. The bacterial loads were examined by lysing MDCK cells with 1% Triton X-100 in PBS and serially diluting the resulting lysates to enumerate bacterial colonies by agar plating. The assay was performed in triplicate, repeated three times, and results were expressed as average ± SD.

[7] = test system: C208A-Rosetta; assay: Microdilution MIC assay; type: cell-based, E. coli; settings: C208A-Rosetta
Description: For the test of C208A-Rosetta, the growth condition briefly goes as follow. Overnight culture of C208A-Rosetta was diluted into fresh LB medium (1000-fold) and regrew to OD ~0.6. The overexpression of NDM-1-C208A was induced by addition of 200 μM isopropyl β-D-1-thiogalactopyranoside (IPTG) for 18 h at 25 °C. The following susceptibility test was performed as described in the Microdilution MIC and MBC assay section in the methodology by using the resulting bacterial pellets with the supplementation of 200 μM IPTG.
Other procedures were kept strictly the same.

Sequence of NDM-1 (C7C422 29-270, looked up, species assumed): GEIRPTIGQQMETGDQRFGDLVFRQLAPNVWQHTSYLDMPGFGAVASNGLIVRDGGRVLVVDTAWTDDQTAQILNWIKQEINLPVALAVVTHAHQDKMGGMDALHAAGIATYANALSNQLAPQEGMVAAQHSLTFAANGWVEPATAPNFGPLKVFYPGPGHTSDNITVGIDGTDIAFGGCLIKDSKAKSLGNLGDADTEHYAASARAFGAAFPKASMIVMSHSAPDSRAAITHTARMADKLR
Sequence of NDM-1-C208A (C7C422 29-270 C208A): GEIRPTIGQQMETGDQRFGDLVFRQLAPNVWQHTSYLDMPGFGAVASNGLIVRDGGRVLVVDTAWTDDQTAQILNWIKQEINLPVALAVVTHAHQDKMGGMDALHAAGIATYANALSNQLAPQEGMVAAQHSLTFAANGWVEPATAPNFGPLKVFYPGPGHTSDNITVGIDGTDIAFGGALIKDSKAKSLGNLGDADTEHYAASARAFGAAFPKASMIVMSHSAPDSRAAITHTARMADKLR

colloidal bismuth subcitrate [CBS] was tested, and the IC50 ([1]; NDM-1 50 nM, 1 h preincubation) was 2.81 ± 0.34 µM, the “maximal inhibition of MBL activity” value ([1]; NDM-1, dose-dependent) was “approximately 90%” and the IC50 ([2]; VIM-2 50 nM, 1 h preincubation) was 3.54 µM and 3.55 µM. For the same substance, the “maximal inhibition of MBL activity” value ([2]; VIM-2, dose-dependent) was “approximately 90%”, the “inhibitory effect on NDM-1-C208A” value [3] was “much reduced inhibitory effect” and the “protection from death, CBS monotherapy” value ([4]; i.p. twice daily from 4 h post infection, CBS 20 mg kg^−1 (Fig. 4f), within 48 h) was “failed to protect any of the mice from death”. The “mice survival rate, combination therapy of MER and CBS” value ([4]; i.p. twice daily, MER + CBS 20 mg kg^−1 (Fig. 4f)) was 50%, the “lowering of NDM-HK population in time kill curves” value [5] was “more than 1000 fold” and the “decrease in the bacterial load, bacteria-invaded model” value ([6]; MER and CBS combination) was “more than 100 fold”. For the same substance, the “viable bacterial loads, cell-associated infection” value ([6]; MOI 200, MER and CBS (32 μg mL^−1) in combination, overnight) was ~10^4 CFU, the “MIC of MER in combination with CBS at 16 µg mL-1” value [7] was 0.12 µg/mL and the “MIC of MER in combination with CBS at 32 µg mL-1” value [7] was 0.12 µg/mL.
